Settings: Liquid

CCOC(C)=O [ethyl acetate]
mass density [kg/m3]
Settings	298.15 K	303.15 K	308.15 K	313.15 K	318.15 K	323.15 K	328.15 K	333.15 K	338.15 K	343.15 K
100 kPa	894	887.6	881.4	875.2	868.8	862.7	856.4	850.4	844	837.5
1000 kPa	894.7	888.5	882.3	876.1	869.8	864	857.8	851.7	845.4	839.1
2000 kPa	895.7	889.5	883.3	877.2	871	865.1	859.2	853	846.8	840.6
3000 kPa	896.7	890.5	884.4	878.3	872.2	866.2	860.5	854.4	848.2	842
3800 kPa	897.4	891.3	885.3	879.2	873.1	867.1	861.5	855.4	849.3	843.2
5000 kPa	898.8	892.7	886.7	880.6	874.5	868.6	862.5	856.8	850.8	844.5
10000 kPa	903.4	897.5	891.7	885.8	880	874.2	868.4	862.9	857.1	851.2
15000 kPa	907.7	902	896.4	890.7	885.1	879.4	873.9	868.5	863	–
20000 kPa	912	906.3	900.9	895.4	889.8	884.3	879	873.8	868.5	–
25000 kPa	916.1	910.7	905.4	899.8	894.5	889.2	884.1	879	873.9	–
30000 kPa	921.1	915.9	910.7	905.3	900.1	895	890.1	885.2	880.3	–
35000 kPa	926.3	921.2	916.2	910.9	905.9	900.9	896.2	891.4	886.7	–
